Consider 13 compounds from patent US9695129B2, “Parasiticidal compositions comprising benzimidazole derivatives, methods and uses thereof” (MERIAL INC., priority 2012, dated 2017).

Like-named read-outs stand apart in the source and are kept apart here.

What all share (set-up): species or system Fasciola hepatica
Experiment [1] deals with F. hepatica resistant to triclabendazole (Oberon isolate of Australia). Briefly: In vitro test against triclabendazole-resistant F. hepatica (Oberon isolate), movement score. The conditions noted are these: for Fluke activity score: scale 3 (very active) to 0 (death).
The test system of experiment [2] is adult F. hepatica. Kind of experiment: In vitro test on adult F. hepatica (viability scale, effective concentration). The following applies: Fasciola hepatica, read-out: Effective in vitro concentration. The method, then: Representative compounds of formula (I), formula (II), and formula (III) were tested in vitro against F. hepatica as follows. Adult F. hepatica (fluke) were collected from infected bovine livers obtained from a local abattoir (Basel, Switzerland). The worms were quickly washed with 0.9% (w/v) NaCl and placed in 6 or 12-well plates (Costar). Culture medium in each well contained RPMI 1640 (Gibco) at 37° C., which was supplemented with antibiotics (50 μg/ml streptomycin and 50 IU/ml penicillin; Gibco) and 80 μg/ml of a haemin solution. The haemin solution was prepared as follows: 5 mg haemin was dissolved in 1 ml of 0.1M aqueous solution of NaOH, and 3.95 ml of PBS (pH=7.4) and 0.05 ml of 1M HCl were added to adjust the pH to 7.1-7.4 (Keiser and Morson, 2008). Cultures were kept at 37° C. in an atmosphere of 5% CO2. To monitor the temporal effects of test compounds in vitro, 3 flukes were incubated for 72 h in the presence of 50 or 100 μg/ml of each test compound. At 24, 48, and 72 h, worms were examined using a dissecting microscope. For the adult worms, a viability scale ranging from 4 (normal movements) to 1 (death; no movement observed for two min using a microscope) was used.
Table 1 lists representative compounds of formula (I) of the present invention and their effective in vitro concentrations against F. hepatica. All compounds were tested in vitro on the adult stage of F. hepatica as described above. Each data point refers to at least two independent experiments. For Table 1, R2 is H, R4 is Cl and R5 is H.
Table 2 lists representative compounds of formula (II) of the present invention and their effective in vitro concentrations against F. hepatica. All compounds were tested in vitro on the adult stage of F. hepatica as described above. Each data point refers to at least two independent experiments. For Table 2 compounds, the 2-position of the benzimidazole ring is methylthio, R6 is H and R9 is H.
Table 3 lists representative compounds of formula (III) of the present invention and their effective in vitro concentrations against F. hepatica. All compounds were tested in vitro on the adult stage of F. hepatica as described above. Each data point refers to at least two independent experiments. For Table 3, the 2-position of the benzimidazole ring is trifluoromethylthio, R10 is H and R13 is H.

The subject of experiment [3] is adult F. hepatica. Kind of experiment: In vivo test in female Wistar rats harboring adult F. hepatica. The conditions noted are these: single oral dose 100 mg/kg, one week after dosing; for Number of living worms Ø = average: control 6.3; for Worm burden reduction %: vs untreated control. The method, then: Additionally, five compounds were tested in vivo in female Wistar rats against an untreated control. Rats were kept in groups of five in type-4 Makrolon cages under environmentally controlled conditions (temperature, 22° C.; humidity, 70%; light/dark cycle, 12/12 h) with free access to water and rodent food. F. hepatica metacercariae (Pacific Northwest wild strain) were purchased from Baldwin Aquatics (Monmouth, Oreg.). After one week of adaptation, each rat was infected by oral gavage with approximately 25 metacercariae.
Three rats harboring adult F. hepatica (>8 weeks postinfection) were used to test each of five compounds. The rats were given a single oral dose of 100 mg/kg with each of test compounds 273, 274, 282, 290 and 303. Untreated rats (n=3) served as controls. Dosing formulations consisted of 300 ul Tween 80:ethanol (1:1) and 2.7 ml water. One week after dosing the animals were euthanized and live worms recovered from excised bile ducts.

[4] abbreviates: Table 1, formula (I), adult flukes incubated up to 72 h, at least two independent experiments.

As for `FC(F)(F)c1nc2cc(Cl)c(-c3ccc(Cl)cc3)cc2[nH]1` [Compound 130, 6-chloro-5-(4-chlorophenyl)-2-trifluoromethylbenzimidazole], the Fluke activity score in experiment [1] (20 μg/ml, 0 h) was 3; in experiment [1] (20 μg/ml, 24 h) it was 0.25; in experiment [1] (20 μg/ml, 48 h) it was 0; in experiment [1] (20 μg/ml, 72 h) it was 0. The minimal effective concentration in experiment [2] (72 h) was 2.5 µg/mL.
For `FC(F)(F)C(F)(F)C(F)(F)c1nc2cc(Cl)c(Oc3cccc(Cl)c3Cl)cc2[nH]1` [Compound 140, 6-chloro-5-(2,3-dichlorophenoxy)-2-heptafluoropropylbenzimidazole], the Fluke activity score amounted to 3 in experiment [1] (20 μg/ml, 0 h); 0.5 in experiment [1] (20 μg/ml, 24 h); 0 in experiment [1] (20 μg/ml, 48 h); 0 in experiment [1] (20 μg/ml, 72 h). The minimal effective concentration in experiment [2] (72 h) is 5 µg/mL.
`FC(F)(F)C(F)(F)C(F)(F)c1nc2cc(Cl)c(Oc3ccc(Cl)cc3Cl)cc2[nH]1` [Compound 273, 5-chloro-6-(2,4-dichlorophenoxy)-2-(heptafluoropropyl)-1H-1,3-benzodiazole]: the “No. of rats cured/No. of rats investigated” value in experiment [3] is on record as 1/2. For the same compound, the “Number of living worms Ø = average” value in experiment [3] turned out to be 1.5. Also, the “Worm burden reduction %” value in experiment [3] is 76.2%. The Fluke activity score amounted to 3 in experiment [1] (10 μg/ml, 0 h); 0 in experiment [1] (10 μg/ml, 24 h); 0 in experiment [1] (10 μg/ml, 48 h); 0 in experiment [1] (10 μg/ml, 72 h); 3 in experiment [1] (20 μg/ml, 0 h); 0 in experiment [1] (20 μg/ml, 24 h). Also, the Fluke activity score is 0 in experiment [1] (20 μg/ml, 48 h) and 0 in experiment [1] (20 μg/ml, 72 h). Besides, in experiment [1] (even at 10 μg/ml, compared with #114, #130, #140 and 50 μg/ml triclabendazole/sulfoxide), the “Efficacy against triclabendazole-resistant flukes, in words” value is listed as “particularly efficacious”. Moreover, the minimal effective concentration in experiment [2] (72 h) was found to be 5 µg/mL.
With `FC(F)(F)C(F)(F)C(F)(F)c1nc2cc(Cl)c(-c3ccc(Cl)cc3)cc2[nH]1` [Compound 274, 5-chloro-6-(4-chlorophenyl)-2-(heptafluoropropyl)-1H-1,3-benzodiazole], in experiment [3], the “No. of rats cured/No. of rats investigated” value is listed as 1/3 and the “Number of living worms Ø = average” value turned out to be 2.3. The minimal effective concentration in experiment [2] (72 h) was determined as 5 µg/mL.
In the case of `Fc1ccc(-c2cc3[nH]c(C(F)(F)C(F)(F)C(F)(F)F)nc3cc2Cl)cc1` [Compound 282, 5-chloro-6-(4-fluorophenyl)-2-(heptafluoropropyl)-1H-1,3-benzodiazole], in experiment [3], the “No. of rats cured/No. of rats investigated” value is on record as 2/3 and the “Number of living worms Ø = average” value came to 2. For the same compound, in experiment [2] (72 h), the minimal effective concentration is less than 2.5 µg/mL.
As for `FC(F)(F)c1ccc(-c2cc3[nH]c(C(F)(F)C(F)(F)C(F)(F)F)nc3cc2Cl)cc1` [Compound 290, 5-chloro-2-(heptafluoropropyl)-6-[4-(trifluoromethyl)phenyl]-1H-1,3-benzodiazole], in experiment [3], the “No. of rats cured/No. of rats investigated” value is given as 1/3, the “Number of living worms Ø = average” value was 3.3 and the “Worm burden reduction %” value turned out to be 47.6%. Moreover, the minimal effective concentration in experiment [2] (setting [4]) was determined as 50 µg/mL.
In the case of `FC(F)(F)c1ccc(-c2cc3[nH]c(C(F)(F)C(F)(F)C(F)(F)F)nc3cc2Cl)c(C(F)(F)F)c1` [Compound 303, 6-[2,4-bis(trifluoromethyl)phenyl]-5-chloro-2-(heptafluoropropyl)-1H-1,3-benzodiazole], in experiment [3], the “No. of rats cured/No. of rats investigated” value is reported as 1/3, the “Number of living worms Ø = average” value is 1.3 and the “Worm burden reduction %” value is given as 79.4%. In addition, in experiment [2] (setting [4]), the minimal effective concentration was 20 µg/mL.
`FC(F)(F)c1cc(Cl)ccc1-c1cc2[nH]c(C(F)(F)C(F)(F)F)nc2cc1Cl` [Compound 305, 5-chloro-6-[4-chloro-2-(trifluoromethyl)phenyl]-2-(pentafluoroethyl)-1H-1,3-benzodiazole]: the minimal effective concentration in experiment [2] (setting [4]) came out at 20 µg/mL.
Take `FC(F)(F)c1cc(Cl)ccc1-c1cc2[nH]c(C(F)(F)C(F)(F)C(F)(F)F)nc2cc1Cl` [Compound 306, 5-chloro-6-[4-chloro-2-(trifluoromethyl)phenyl]-2-(heptafluoropropyl)-1H-1,3-benzodiazole]: in experiment [2] (setting [4]), the minimal effective concentration worked out at 20 µg/mL.
In the case of `FC(F)(F)c1ccc(-c2cc3[nH]c(C(F)(F)F)nc3cc2Cl)c(Cl)c1` [Compound 307, 5-chloro-6-[2-chloro-4-(trifluoromethyl)phenyl]-2-(trifluoromethyl)-1H-1,3-benzodiazole], in experiment [2] (setting [4]), the minimal effective concentration was less than 2.5 µg/mL.
For the compound `FC(F)(F)c1ccc(-c2cc3[nH]c(C(F)(F)C(F)(F)F)nc3cc2Cl)c(Cl)c1` [Compound 308, 5-chloro-6-[2-chloro-4-(trifluoromethyl)phenyl]-2-(pentafluoroethyl)-1H-1,3-benzodiazole], the minimal effective concentration in experiment [2] (setting [4]) is less than 10 µg/mL.
For the compound `FC(F)(F)c1ccc(-c2cc3[nH]c(C(F)(F)C(F)(F)C(F)(F)F)nc3cc2Cl)c(Cl)c1` [Compound 309, 5-chloro-6-[2-chloro-4-(trifluoromethyl)phenyl]-2-(heptafluoropropyl)-1H-1,3-benzodiazole], in experiment [2] (setting [4]), the minimal effective concentration turned out to be 20 µg/mL.
For the compound `C[S+]([O-])c1nc2cc(Oc3cccc(Cl)c3Cl)c(Cl)cc2[nH]1` (stereo not shown) [TBZ-SOX, triclabendazole/sulfoxide, reference compound], the Fluke activity score stood at 3 in experiment [1] (50 μg/ml, 0 h); 3 in experiment [1] (50 μg/ml, 24 h); 2.5 in experiment [1] (50 μg/ml, 48 h); 2 in experiment [1] (50 μg/ml, 72 h).
